For 13 compounds, inhibition results are on record in patent EP3212201B1, “NUCLEOSIDE KINASE INHIBITORS” (BCI Pharma, priority 2014, dated 2016).

What all share (assay): FRET-based coupled-enzyme protein kinase inhibition assay
What all share (type): biochemical
What all share (details): compound at 10 µM, 1% DMSO

For one assay, the target named is SRC (Homo sapiens, UniProt P12931). An outline of the steps:
(§1)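 FRET peptide (coumarin donor, fluorescein acceptor) was phosphorylated by each kinase in 50 mM HEPES pH 7.5, 10 mM MgCl2, 1 mM EDTA, 0.01% BRIJ-35 for 60 min at room temperature. ATP was at apparent Km, compounds in 1% DMSO. Protease development reagent then cleaved non-phosphorylated peptide over 60 min.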

Another assay concerns the target MAPK8 (JNK1) (Homo sapiens, UniProt P45983). An outline of the steps:
as §1

The target of another assay is KDR (VEGFR2) (Homo sapiens, UniProt P35968). The method, boiled down:
as §1

In a further assay the target is CDK1/cyclin B (Homo sapiens, UniProt P06493). An outline of the steps: as §1
Chain of CDK1/cyclin B (P06493 whole entry, species assumed): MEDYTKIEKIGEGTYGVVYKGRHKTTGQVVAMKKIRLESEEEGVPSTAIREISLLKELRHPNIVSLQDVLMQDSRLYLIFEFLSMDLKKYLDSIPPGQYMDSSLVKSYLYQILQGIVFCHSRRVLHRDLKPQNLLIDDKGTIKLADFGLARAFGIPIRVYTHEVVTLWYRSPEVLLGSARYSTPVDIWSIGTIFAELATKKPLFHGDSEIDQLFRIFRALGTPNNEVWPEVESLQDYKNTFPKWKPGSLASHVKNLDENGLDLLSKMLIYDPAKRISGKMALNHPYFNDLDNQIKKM
Chain of CDK1/cyclin B (P14635 whole entry partner, species assumed): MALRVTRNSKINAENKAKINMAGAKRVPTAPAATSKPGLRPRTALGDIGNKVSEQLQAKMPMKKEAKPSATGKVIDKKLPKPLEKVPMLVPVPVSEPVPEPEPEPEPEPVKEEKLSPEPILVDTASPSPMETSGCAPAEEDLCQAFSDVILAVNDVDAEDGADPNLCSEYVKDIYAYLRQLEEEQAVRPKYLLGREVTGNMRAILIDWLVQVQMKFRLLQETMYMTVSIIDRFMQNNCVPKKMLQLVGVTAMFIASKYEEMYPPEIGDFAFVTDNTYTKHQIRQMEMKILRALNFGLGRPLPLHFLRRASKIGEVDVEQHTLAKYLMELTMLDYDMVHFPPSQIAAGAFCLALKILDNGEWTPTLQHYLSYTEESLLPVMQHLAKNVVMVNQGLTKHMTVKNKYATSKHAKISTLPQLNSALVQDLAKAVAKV
The target in the next assay is IGF1R (Homo sapiens, UniProt P08069). The method, boiled down:
as §1

The next assay concerns the target RPS6KB1 (p70S6K) (Homo sapiens, UniProt P23443). The method, boiled down:
as §1

A further assay concerns the target CSNK1G2 (CK1 gamma 2) (Homo sapiens, UniProt P78368). The method, boiled down:
as §1

The target of another assay is EGFR (ErbB1) (Homo sapiens, UniProt P00533). An outline of the steps: as §1
The target of a further assay is RPS6KA3 (RSK2) (Homo sapiens, UniProt P51812). The method, boiled down: as §1
Chain of RPS6KA3 (RSK2) (P51812 whole entry, species assumed): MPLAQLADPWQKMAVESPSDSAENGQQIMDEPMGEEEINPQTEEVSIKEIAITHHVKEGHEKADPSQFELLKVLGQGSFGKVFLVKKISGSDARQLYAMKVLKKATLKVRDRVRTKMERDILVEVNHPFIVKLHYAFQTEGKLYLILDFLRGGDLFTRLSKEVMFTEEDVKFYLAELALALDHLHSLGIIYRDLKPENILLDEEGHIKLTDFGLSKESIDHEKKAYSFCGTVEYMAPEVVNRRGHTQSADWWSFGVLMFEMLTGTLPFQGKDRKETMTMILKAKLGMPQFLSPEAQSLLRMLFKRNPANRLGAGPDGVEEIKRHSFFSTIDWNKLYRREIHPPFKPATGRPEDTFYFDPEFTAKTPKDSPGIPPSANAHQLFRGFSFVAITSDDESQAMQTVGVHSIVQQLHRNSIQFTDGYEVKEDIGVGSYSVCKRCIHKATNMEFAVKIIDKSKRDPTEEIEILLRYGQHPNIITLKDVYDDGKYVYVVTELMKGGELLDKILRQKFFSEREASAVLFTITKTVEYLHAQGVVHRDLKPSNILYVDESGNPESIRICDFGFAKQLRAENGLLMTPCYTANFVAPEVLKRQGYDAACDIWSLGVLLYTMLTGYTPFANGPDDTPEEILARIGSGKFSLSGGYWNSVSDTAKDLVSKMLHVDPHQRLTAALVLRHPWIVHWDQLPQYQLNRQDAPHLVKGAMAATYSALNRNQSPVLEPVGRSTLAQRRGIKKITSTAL
A further assay concerns the target T1, FLT3 (Homo sapiens, UniProt P36888).
T1 sequence (P36888 27-993): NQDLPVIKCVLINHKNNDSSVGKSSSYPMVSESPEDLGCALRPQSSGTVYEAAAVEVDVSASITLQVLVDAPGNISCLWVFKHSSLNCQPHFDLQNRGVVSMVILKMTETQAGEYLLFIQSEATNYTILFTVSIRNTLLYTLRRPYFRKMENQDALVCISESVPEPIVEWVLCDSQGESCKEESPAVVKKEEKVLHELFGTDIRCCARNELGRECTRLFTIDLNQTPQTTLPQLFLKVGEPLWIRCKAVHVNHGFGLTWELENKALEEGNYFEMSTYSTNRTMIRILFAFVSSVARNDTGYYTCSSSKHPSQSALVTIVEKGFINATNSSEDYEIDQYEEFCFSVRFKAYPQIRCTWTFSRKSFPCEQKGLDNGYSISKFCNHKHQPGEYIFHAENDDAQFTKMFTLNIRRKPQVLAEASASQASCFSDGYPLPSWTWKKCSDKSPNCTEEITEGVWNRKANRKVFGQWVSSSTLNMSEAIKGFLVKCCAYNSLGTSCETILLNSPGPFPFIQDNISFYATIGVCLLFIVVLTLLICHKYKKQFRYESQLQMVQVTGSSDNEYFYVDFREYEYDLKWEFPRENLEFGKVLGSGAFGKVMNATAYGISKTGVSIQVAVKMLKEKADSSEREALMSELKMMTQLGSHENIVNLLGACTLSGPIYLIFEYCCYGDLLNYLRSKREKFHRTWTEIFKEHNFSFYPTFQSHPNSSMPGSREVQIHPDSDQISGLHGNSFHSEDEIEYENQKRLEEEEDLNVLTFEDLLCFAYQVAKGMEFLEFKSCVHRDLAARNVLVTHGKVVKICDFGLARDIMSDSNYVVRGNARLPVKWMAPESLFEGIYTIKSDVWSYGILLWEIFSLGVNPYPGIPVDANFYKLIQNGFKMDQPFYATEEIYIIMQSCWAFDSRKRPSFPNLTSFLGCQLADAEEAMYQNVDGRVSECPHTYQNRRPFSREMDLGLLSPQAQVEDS
The method, boiled down:
as §1

Structures are written as SMILES.

Chain of IGF1R (P08069 31-1367, species assumed): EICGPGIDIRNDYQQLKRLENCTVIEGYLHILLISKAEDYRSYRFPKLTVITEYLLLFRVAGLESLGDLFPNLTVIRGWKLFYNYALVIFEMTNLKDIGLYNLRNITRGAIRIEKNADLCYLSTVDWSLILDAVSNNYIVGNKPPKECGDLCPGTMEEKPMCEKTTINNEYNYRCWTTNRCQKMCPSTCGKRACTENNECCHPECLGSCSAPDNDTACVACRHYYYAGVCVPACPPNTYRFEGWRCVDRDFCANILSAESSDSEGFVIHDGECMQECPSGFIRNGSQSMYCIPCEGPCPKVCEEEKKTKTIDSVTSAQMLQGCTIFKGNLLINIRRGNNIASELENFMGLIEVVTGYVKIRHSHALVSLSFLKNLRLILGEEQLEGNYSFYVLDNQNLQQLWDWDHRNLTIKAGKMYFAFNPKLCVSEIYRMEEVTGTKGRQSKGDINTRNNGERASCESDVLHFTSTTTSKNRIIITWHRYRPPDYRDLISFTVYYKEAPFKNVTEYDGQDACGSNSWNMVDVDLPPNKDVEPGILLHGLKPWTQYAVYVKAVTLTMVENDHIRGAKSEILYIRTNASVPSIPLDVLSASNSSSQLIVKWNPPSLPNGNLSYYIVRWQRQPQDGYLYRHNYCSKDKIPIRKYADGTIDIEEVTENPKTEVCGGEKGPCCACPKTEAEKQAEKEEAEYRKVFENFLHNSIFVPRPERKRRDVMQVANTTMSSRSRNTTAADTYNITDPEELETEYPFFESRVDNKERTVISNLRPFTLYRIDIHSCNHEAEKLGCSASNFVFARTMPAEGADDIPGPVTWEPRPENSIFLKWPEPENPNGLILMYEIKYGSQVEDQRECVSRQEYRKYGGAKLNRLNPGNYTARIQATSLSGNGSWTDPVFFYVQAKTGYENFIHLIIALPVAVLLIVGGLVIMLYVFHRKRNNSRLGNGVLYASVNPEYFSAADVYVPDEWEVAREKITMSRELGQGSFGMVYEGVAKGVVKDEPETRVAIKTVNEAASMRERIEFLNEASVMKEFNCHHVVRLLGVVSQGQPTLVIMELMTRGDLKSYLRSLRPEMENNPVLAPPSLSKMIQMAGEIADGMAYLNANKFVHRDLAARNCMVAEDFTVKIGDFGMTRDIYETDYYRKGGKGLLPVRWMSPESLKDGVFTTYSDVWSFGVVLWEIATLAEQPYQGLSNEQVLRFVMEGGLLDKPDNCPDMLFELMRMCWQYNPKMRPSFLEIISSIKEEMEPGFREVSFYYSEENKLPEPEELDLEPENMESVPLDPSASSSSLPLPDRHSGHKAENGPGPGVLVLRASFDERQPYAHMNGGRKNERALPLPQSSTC
Chain of MAPK8 (JNK1) (P45983 whole entry, species assumed): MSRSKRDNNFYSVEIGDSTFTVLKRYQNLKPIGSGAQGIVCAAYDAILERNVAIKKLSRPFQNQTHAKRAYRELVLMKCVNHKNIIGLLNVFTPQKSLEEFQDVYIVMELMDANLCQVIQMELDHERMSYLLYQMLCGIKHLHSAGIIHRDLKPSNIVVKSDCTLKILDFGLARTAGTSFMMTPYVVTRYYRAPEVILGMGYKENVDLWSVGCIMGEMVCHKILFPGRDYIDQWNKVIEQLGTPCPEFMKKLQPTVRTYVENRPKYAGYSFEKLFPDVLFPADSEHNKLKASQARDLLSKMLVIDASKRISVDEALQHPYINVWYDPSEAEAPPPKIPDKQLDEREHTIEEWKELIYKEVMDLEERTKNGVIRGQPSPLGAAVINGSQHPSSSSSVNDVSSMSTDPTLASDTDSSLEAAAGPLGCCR
Chain of RPS6KB1 (p70S6K) (P23443 whole entry, species assumed): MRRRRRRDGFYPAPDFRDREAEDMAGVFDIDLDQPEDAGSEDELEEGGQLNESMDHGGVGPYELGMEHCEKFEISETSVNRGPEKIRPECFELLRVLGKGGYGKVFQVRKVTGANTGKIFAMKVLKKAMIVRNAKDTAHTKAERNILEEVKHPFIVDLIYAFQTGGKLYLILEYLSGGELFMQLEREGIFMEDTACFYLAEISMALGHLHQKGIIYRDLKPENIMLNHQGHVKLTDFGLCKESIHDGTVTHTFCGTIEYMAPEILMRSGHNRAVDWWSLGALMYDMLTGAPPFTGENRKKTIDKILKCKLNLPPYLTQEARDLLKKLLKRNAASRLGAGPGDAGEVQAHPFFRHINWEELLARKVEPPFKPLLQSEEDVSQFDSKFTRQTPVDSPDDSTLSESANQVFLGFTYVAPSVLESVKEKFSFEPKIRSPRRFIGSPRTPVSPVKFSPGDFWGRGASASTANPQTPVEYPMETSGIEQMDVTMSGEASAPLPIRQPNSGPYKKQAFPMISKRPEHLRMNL
Chain of SRC (P12931 whole entry, species assumed): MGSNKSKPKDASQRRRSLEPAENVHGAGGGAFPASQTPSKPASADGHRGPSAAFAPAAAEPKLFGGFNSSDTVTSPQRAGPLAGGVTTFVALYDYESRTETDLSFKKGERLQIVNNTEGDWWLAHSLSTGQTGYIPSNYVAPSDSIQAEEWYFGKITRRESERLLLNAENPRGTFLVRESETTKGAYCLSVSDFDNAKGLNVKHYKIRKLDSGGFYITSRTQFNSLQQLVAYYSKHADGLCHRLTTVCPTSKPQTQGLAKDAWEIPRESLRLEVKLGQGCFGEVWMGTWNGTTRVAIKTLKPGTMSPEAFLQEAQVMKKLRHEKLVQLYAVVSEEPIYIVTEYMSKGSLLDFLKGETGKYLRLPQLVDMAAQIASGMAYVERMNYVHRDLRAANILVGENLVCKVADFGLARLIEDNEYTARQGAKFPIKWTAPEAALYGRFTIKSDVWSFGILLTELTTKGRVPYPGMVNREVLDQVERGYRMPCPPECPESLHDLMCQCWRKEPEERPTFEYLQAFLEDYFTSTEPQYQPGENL
Chain of CSNK1G2 (CK1 gamma 2) (P78368 whole entry, species assumed): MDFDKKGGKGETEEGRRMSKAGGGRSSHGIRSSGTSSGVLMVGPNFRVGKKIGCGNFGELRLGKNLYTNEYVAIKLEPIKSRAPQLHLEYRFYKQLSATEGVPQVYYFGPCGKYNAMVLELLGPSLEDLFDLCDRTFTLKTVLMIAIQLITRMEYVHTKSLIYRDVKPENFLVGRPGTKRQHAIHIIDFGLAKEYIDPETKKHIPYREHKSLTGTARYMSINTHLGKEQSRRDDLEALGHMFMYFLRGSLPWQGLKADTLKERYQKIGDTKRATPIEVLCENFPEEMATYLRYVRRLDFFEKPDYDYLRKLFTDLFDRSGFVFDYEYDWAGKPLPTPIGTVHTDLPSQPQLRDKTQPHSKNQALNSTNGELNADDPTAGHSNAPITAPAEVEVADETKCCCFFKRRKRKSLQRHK

Take `Nc1ncnc2c1ncn2[C@@H]1O[C@H](COC(=O)N2CCN(C(=O)N3CCOCC3)CC2)[C@@H](O)[C@H]1O` [Compound C89]: the inhibition at 10 µM on SRC is 8%; against MAPK8 (JNK1) it was 5%; against KDR (VEGFR2), -6%; on CDK1/cyclin B, 1%; at IGF1R it was 2%; at RPS6KB1 (p70S6K), 0%. Also, the inhibition at 10 µM on CSNK1G2 (CK1 gamma 2) turned out to be 0%; at EGFR (ErbB1), 28%; against RPS6KA3 (RSK2) it was 0%; on FLT3, 10%.
Turning to `Nc1ncnc2c1ncn2[C@@H]1O[C@H](COC(=O)N2CCC(Cc3ccc(F)cc3)C2)[C@@H](O)[C@H]1O` (stereo partly shown) [Compound C66], the inhibition at 10 µM against SRC came to 38%; at MAPK8 (JNK1) it was 6%; against KDR (VEGFR2) it was 3%; on CDK1/cyclin B, 11%; against IGF1R, 1%; against RPS6KB1 (p70S6K) it was 16%. Besides, the inhibition at 10 µM amounted to 10% against CSNK1G2 (CK1 gamma 2), 31% on EGFR (ErbB1), 6% at RPS6KA3 (RSK2) and 20% on FLT3.
In the case of `Nc1ncnc2c1ncn2[C@@H]1O[C@H](COC(=O)N2CCN(CCc3ccccc3)CC2)[C@@H](O)[C@H]1O` [Compound C26], the inhibition at 10 µM at SRC is 29%; against MAPK8 (JNK1), 8%; against KDR (VEGFR2), -3%; at CDK1/cyclin B it was 8%; on IGF1R, 8%; on RPS6KB1 (p70S6K), 8%. Moreover, the inhibition at 10 µM is 0% at CSNK1G2 (CK1 gamma 2), 13% against EGFR (ErbB1), 0% against RPS6KA3 (RSK2) and 18% at FLT3.
Consider `CN1CCN(CCNC(=O)OC[C@H]2O[C@@H](n3cnc4c(N)ncnc43)[C@H](O)[C@@H]2O)CC1` [Compound C46], for which the inhibition at 10 µM against SRC is 17%; on MAPK8 (JNK1), -2%; against KDR (VEGFR2) it was -7%; against CDK1/cyclin B, 7%; on IGF1R, 7%; against RPS6KB1 (p70S6K), 14%. Also, the inhibition at 10 µM on CSNK1G2 (CK1 gamma 2) was -4%; on EGFR (ErbB1) it was 14%; on RPS6KA3 (RSK2) it was 6%; on FLT3 it was 10%.
On to `CC(C)N1CCC(NC(=O)OC[C@H]2O[C@@H](n3cnc4c(N)ncnc43)[C@H](O)[C@@H]2O)CC1` [Compound C19], for which the inhibition at 10 µM against SRC was -1%; at MAPK8 (JNK1), 0%; against KDR (VEGFR2) it was -10%; on CDK1/cyclin B, 7%; against IGF1R it was -2%; against RPS6KB1 (p70S6K) it was 3%. The inhibition at 10 µM at CSNK1G2 (CK1 gamma 2) amounted to 6%; against EGFR (ErbB1) it was 17%; at RPS6KA3 (RSK2), 1%; at FLT3, 23%.
Turning to `Nc1ncnc2c1ncn2[C@@H]1O[C@H](COC(=O)NCCCc2nc3ccccc3[nH]2)[C@@H](O)[C@H]1O` [Compound C1], the inhibition at 10 µM against SRC is 46%; on MAPK8 (JNK1), 12%; at KDR (VEGFR2) it was -6%; against CDK1/cyclin B, -2%; at IGF1R, 0%; at RPS6KB1 (p70S6K), 15%. Moreover, the inhibition at 10 µM at CSNK1G2 (CK1 gamma 2) was -2%; against EGFR (ErbB1), 34%; against RPS6KA3 (RSK2), 8%; against FLT3, 6%.
On to `CN(C)CCNC(=O)OC[C@H]1O[C@@H](n2cnc3c(N)ncnc32)[C@H](O)[C@@H]1O` [Compound C85], for which the inhibition at 10 µM on SRC is 17%; against MAPK8 (JNK1) it was 4%; against KDR (VEGFR2) it was 2%; at CDK1/cyclin B, 3%; at IGF1R, 8%; against RPS6KB1 (p70S6K), -1%. Further, the inhibition at 10 µM at CSNK1G2 (CK1 gamma 2) worked out at 0%; against EGFR (ErbB1) it was 20%; against RPS6KA3 (RSK2) it was 7%; against FLT3 it was 12%.
`CS(=O)(=O)N1CC2(CCN(C(=O)OC[C@H]3O[C@@H](n4cnc5c(N)ncnc54)[C@H](O)[C@@H]3O)CC2)c2ccccc21` [Compound C98]: the inhibition at 10 µM against SRC turned out to be 58%; on MAPK8 (JNK1), 4%; at KDR (VEGFR2), 8%; against CDK1/cyclin B it was 8%; at IGF1R, 8%; against RPS6KB1 (p70S6K), 0%. Moreover, the inhibition at 10 µM amounted to 15% on CSNK1G2 (CK1 gamma 2), 5% against EGFR (ErbB1), 4% against RPS6KA3 (RSK2) and 13% on FLT3.
For the compound `Nc1ncnc2c1ncn2[C@@H]1O[C@H](COC(=O)NC[C@H](O)CO)[C@@H](O)[C@H]1O` [Compound C8], the inhibition at 10 µM was -13% on SRC; 13% against MAPK8 (JNK1); 0% on KDR (VEGFR2); 4% against CDK1/cyclin B; 5% against IGF1R; 11% against RPS6KB1 (p70S6K). Besides, the inhibition at 10 µM is 13% against CSNK1G2 (CK1 gamma 2), 14% on EGFR (ErbB1), 19% against RPS6KA3 (RSK2) and 12% against FLT3.
Take `Nc1ncnc2c1ncn2[C@@H]1O[C@H](COC(=O)N2CCN(Cc3ccccc3)CC2CO)[C@@H](O)[C@H]1O` (stereo partly shown) [Compound C13]: the inhibition at 10 µM is 29% at SRC; 2% against MAPK8 (JNK1); -3% against KDR (VEGFR2); 9% against CDK1/cyclin B; 2% at IGF1R; 10% against RPS6KB1 (p70S6K). For the same compound, the inhibition at 10 µM was found to be 11% against CSNK1G2 (CK1 gamma 2), 8% against EGFR (ErbB1), 3% at RPS6KA3 (RSK2) and 12% at FLT3.
In the case of `Nc1ncnc2c1ncn2[C@@H]1O[C@H](COC(=O)N2CCC[C@H]2CO)[C@@H](O)[C@H]1O` [Compound C9], the inhibition at 10 µM against SRC is 16%; on MAPK8 (JNK1), 3%; against KDR (VEGFR2) it was -3%; on CDK1/cyclin B, 3%; against IGF1R it was 9%; at RPS6KB1 (p70S6K), 3%. Further, the inhibition at 10 µM at CSNK1G2 (CK1 gamma 2) is -5%; on EGFR (ErbB1), -2%; against RPS6KA3 (RSK2) it was 1%; at FLT3, 8%.
For `Nc1ncnc2c1ncn2[C@@H]1O[C@H](COC(=O)NCCN2CCCC2=O)[C@@H](O)[C@H]1O` [Compound C22], the inhibition at 10 µM at SRC was 12%; on MAPK8 (JNK1) it was 5%; against KDR (VEGFR2), -7%; at CDK1/cyclin B, 7%; on IGF1R it was 4%; at RPS6KB1 (p70S6K), 0%. Also, the inhibition at 10 µM is 2% on CSNK1G2 (CK1 gamma 2), 11% on EGFR (ErbB1), 2% on RPS6KA3 (RSK2) and 9% against FLT3.
For `C[C@@H](NC(=O)OC[C@H]1O[C@@H](n2cnc3c(N)ncnc32)[C@H](O)[C@@H]1O)c1ccc(Cl)cc1` [Compound C4], the inhibition at 10 µM against SRC was 33%; against MAPK8 (JNK1), 14%; against KDR (VEGFR2), 4%; against CDK1/cyclin B it was 8%; against IGF1R, 11%; against RPS6KB1 (p70S6K) it was 22%. Besides, the inhibition at 10 µM against CSNK1G2 (CK1 gamma 2) stood at 7%; at EGFR (ErbB1), 22%; against RPS6KA3 (RSK2), 9%; against FLT3, 19%.

By inhibition is commonly meant the drop in the measured response relative to a control, in per cent.
